Key:
[1] = tested on: foot mucosa of slugs of species Limax; type: in vivo; details: in vivo
Description: Slugs of the species Limax are terrestial slugs have lungs and also a small internal shell. As test substances hydroxypropyl-β-cyclodextrin (HPβCD), sodium tauro-24,25-dihdrofiisidate (STDHF) and sodium deoxycholate were selected. Benzalkonium chloride (1% w/v), HPβCD (5% w/v), STDHF (1% w/v) and SDC (1% w/v) were prepared in phosphate buffered saline (PBS, pH 7.4).
The enzymes lactate dehydrogenase (LDH) and alkaline phosphatase (ALP) and total protein released into the PBS were determined. The change in body weight and mucus production caused by the treatment were examined.

[2] = tested on: foot mucosa of slugs of species Arion; test: Slug mucosal toxicity test, Example 2 (15 min daily treatment, four days); details: for % WL, weight loss as reduction in body weight caused by the 15 minutes of treatment / % MP, mucus production as % of the body weight at the start of the day before the treatment: 1% w/v in PBS; for % MP, mucus production as % of the body weight at the start of the day before the treatment / ALP released into PBS / LDH released into PBS / Protein released into PBS: 15 min; for ALP released into PBS / LDH released into PBS / Protein released into PBS: 1% w/v, total mean of 3 samples/day per slug
Description: As test substance a β-blocking agent propranolo HCl (1% w/v) was used. Benzalkonium chloride (1% w/v) and Propranolol (1% w/v) were prepared in PBS (pH 7.4). The slugs were daily incubated during 15 min with the test solution during four days. After the incubation period the slugs were placed on 500 μL PBS in a petri dish. The PBS was sampled every hour and refreshed with 500 μL PBS for 3 hours after the treatment.
The enzymes (LDH, ALP) and the total protein released into the PBS were determined. The change in body weight and the mucus production caused by the treatment were examined.

[3] = tested on: foot mucosa of slugs of species Arion; type: in vivo; details: in vivo
[4] = tested on: foot mucosa of slugs (species Arion); test: Slug mucosal toxicity test, Example 1 (15 min daily treatment, five days); type: in vivo; details: in vivo
Text: Initially, the slugs are kept on a culture under controlled conditions of temperature and humidity until they have reached a stable body weight. The purpose of achieving a stable body weight is to improve the reproducibility of the results, particularly as the release of substances from the slugs may conveniently be measured in terms of the body weight thereof. The slugs are then isolated from the culture and placed in a vented plastic box lined with moist paper towel and placed at 95% relative humidity at 20° C. seven days before the start of an experiment. The slugs were not bred in any particular way, i.e. they were wild slugs. It is anticipated that even more accurate and reproducible results can be obtained by selective breeding of the slugs, although as shown by the test results this is not a necessary requirement of the present invention to obtain accurate and useful data.
The test procedure is simple and rapid. The chemical substance to be tested is applied directly to the mucosal membrane of a slug, e.g. to the foot, by placing the slug individually in a petri dish containing the test substance. Slugs treated with phosphate buffered saline are used as a negative control. As a positive control slugs treated with a known toxic substance, benzalkonium chloride, were used.
Because the mucosal epithelium of interest is located at the outside of the slug the effect of substances can be easily observed. […] This can also be simply measured by weighing the petri dish before and after the treatment of the slugs with the chemical substance (with the slugs removed in each case). Additionally an indirect response to epithelial damage caused by a chemical substance may be determined by the reduction of the body weight of the slugs due to the leakage of haemolymphatic fluids through the damaged foot surface.
After the treatment the slugs are transferred individually to a fresh petri dish containing phosphate buffered saline. After a suitable exposure time, e.g. 1 hour the phosphate buffered saline is collected and analysed for the presence of proteins and/or enzymes, e.g. lactate dehydrogenase and/or alkaline phosphatase, or other marker substances released from the foot or epithelium of the slug, for example membrane associated components such as phospholipids or cholesterol. This procedure can be repeated after periods of several hours in order to determine the reversibility of the cell damage caused by the test chemical substance. The concentration or amount of the chemical substance to be tested can be changed and the influence of the concentration can be easily examined. The exposure time can also be changed if required. The slugs can be treated during several successive days in order to investigate the subchronical effect of substances on the foot mucosa.
Seven days before the start of the experiment the slugs were isolated in a plastic box lined with moist paper towel and placed at 95% relative humidity at 20° C. As test substances didecanyol-L-α-phosphatidylcholine (DDPC) and sodium deoxycholate (SDC) were selected. Benzalkonium chloride (1% w/v), SDC (1% w/v) and DDPC (1%, w/v) were prepared in phosphate buffered saline (PBS, pH 7.4). […] During the test the slugs are preferably kept in a generally calm and normal state and are not subjected to mechanical vibrations or mechanical or electrical disturbances which may affect mucus production.
The enzymes (lactate dehydrogenase (LDH) and alkaline phosphatase (ALP)) and total protein released into the PBS were determined. The slugs were weighed before and after the incubation period to determine the body weight changes. The mucus production was measured by weighing the petri dishes before and after the treatment with a test substance. The results are shown in Table 1 and shown graphically in FIGS. 1 to 5.

Benzalkonium chloride
membrane damage (in words) [1]: severe membrane damage
ranking order of increasing toxicity [1]: PBS, 5% HPβCD<1% STDHF<1% SDC and 1% BAC
reduction in body weight to % of the initial weight [1]: about 50%
% WL, weight loss as reduction in body weight caused by the 15 minutes of treatment ([2]; day 1): 7.17%
% MP, mucus production as % of the body weight at the start of the day before the treatment ([2]; day 1): 3.28%
ALP released into PBS ([2]; day 1): 0.56 U/L
LDH released into PBS ([2]; day 1): 1.92 U/L
Protein released into PBS ([2]; day 1): 8.36 μg/30 μL
% WL, weight loss as reduction in body weight caused by the 15 minutes of treatment ([2]; day 2): 4.32%
% MP, mucus production as % of the body weight at the start of the day before the treatment ([2]; day 2): 2.75%
ALP released into PBS ([2]; day 2): 3.42 U/L
LDH released into PBS ([2]; day 2): 6.27 U/L
Protein released into PBS ([2]; day 2): 4.08 μg/30 μL
% WL, weight loss as reduction in body weight caused by the 15 minutes of treatment ([2]; day 3): 2.87%
% MP, mucus production as % of the body weight at the start of the day before the treatment ([2]; day 3): 2.35%
ALP released into PBS ([2]; day 3): 5.64 U/L
LDH released into PBS ([2]; day 3): 8.11 U/L
Protein released into PBS ([2]; day 3): 11.69 μg/30 μL
% WL, weight loss as reduction in body weight caused by the 15 minutes of treatment ([2]; day 4): 3.61%
% MP, mucus production as % of the body weight at the start of the day before the treatment ([2]; day 4): 3.09%
ALP released into PBS ([2]; day 4): 15.59 U/L
LDH released into PBS ([2]; day 4): 48.65 U/L
Protein released into PBS ([2]; day 4): 11.79 μg/30 μL
membrane damage (in words) [3]: severe membrane damage
ranking order of increasing toxicity [3]: PBS, 5% HPβCD<1% STDHF<1% SDC and 1% BAC
reduction in body weight to % of the initial weight [3]: about 50%
membrane damage (in words) [4]: severe membrane damage

— patent US6436630B1, “Method for testing the toxicity of chemical substances using gastropods” (priority 1998, dated 2002)
